Several values for one entry are separate records, joined by “and”; a condition that tells them apart may be missing. Identical values can stand only once.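 Exposure lasted 48 hours, with cells grown in 96-well plates and compounds tested at five concentrations. At the GI50, growth is halved. TGI marks complete inhibition of growth.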
Columns and labels:
Test in all cases: inhibition of tumour cell growth, NCI panel, 48 h
[1] = test system: COLO 205 colon
[2] = test system: SNB-75 CNS
[3] = test system: SN12C renal
[4] = test system: HCT-116 colon
[5] = test system: IGROV1 ovarian
[6] = test system: HCT-15 colon
[7] = test system: SF-295 CNS
[8] = test system: HCC-2998 colon
[9] = test system: RPMI-8226 leukemia
[10] = test system: NCI-H23 lung
[11] = test system: OVCAR-3 ovarian
[12] = test system: NCI-H226 lung

SMILES	TGI [1] [µM]	TGI [2]	TGI [3] [µM]	TGI [4] [µM]	TGI [5] [µM]	TGI [6] [µM]	TGI [7] [µM]	TGI [8]	TGI [9] [µM]	TGI [10] [µM]	TGI [11] [µM]	TGI [12] [µM]	GI50 [2] [µM]	GI50 [3] [µM]	GI50 [5] [µM]	GI50 [7] [µM]	GI50 [10] [µM]	GI50 [8] [µM]	GI50 [9] [µM]
CC(=O)Nc1ccc(Sc2nnc(NC(C)=O)s2)cc1	> 100	> 100 µM	> 100	> 100	> 100	> 100	> 100	> 100 µM	> 100	–	–	–	–	–	–	–	–	–	–
O=[N+]([O-])c1cccc(N=Nc2c(O)ccc3ccccc23)c1	> 100	> 100 µM	> 100	> 100	> 100	> 100	> 100	–	> 100	> 100	–	–	–	–	–	–	–	–	–
COc1cc(C=O)cc(O)c1O	> 100	> 100 µM	> 100	> 100	> 100	> 100	> 100	> 100 µM	> 100	> 100	> 100	> 100	–	–	–	–	–	–	–
O=C1c2ccccc2C(=O)N1CC(CN1C(=O)c2ccccc2C1=O)(C(=O)OCc1ccccc1)C(=O)OCc1ccccc1	> 100	> 100 µM	> 100	> 100	> 100	> 100	> 100	> 100 µM	> 100	> 100	> 100	> 100	–	–	–	–	–	–	–
O=c1oc2ccc([N+](=O)[O-])cc2cc1Br	> 100	–	> 100	> 100	> 100	–	> 100	> 100 µM	> 100	> 100	> 100	> 100	–	–	–	–	–	–	–
Cn1c(=O)c(Cl)c(N=[N+]=[N-])c2ccccc21	> 100	> 100 µM	> 100	> 100	> 100	> 100	> 100	> 100 µM	–	> 100	> 100	> 100	–	–	–	–	–	–	–
O=[N+]([O-])C(=C/c1cccs1)/C(=C\c1cccs1)[N+](=O)[O-]	2.93	> 95.2 µM	–	2.49	–	0.614	4.92	2.58 µM	1.14	3.52	21.7	9.84	–	–	–	–	–	–	–
C=CCCCCCCCCC(=O)O	197	468 µM	339	225	287	192	200	202 µM	352	274	176	394	–	–	–	–	–	–	–
CCOC(=O)C(OP(=O)(OCC)OCC)C(F)(F)F (centres undefined)	–	> 100 µM	> 100	> 100	–	> 100	–	> 100 µM	> 100	> 100	> 100	> 100	–	–	–	–	–	–	–
COc1cccc2c1C(=O)c1c(O)c3c(c(O)c1C2=O)C[C@@](O)(C(=O)CO)CC3OC1CC(NCCCC(OC(C)=O)OC(C)=O)C(O)C(C)O1 (some centres undefined)	–	0.00403 µM and 0.000406 µM	> 1	–	> 1	–	0.000645	0.00593 µM and 0.00191 µM	0.000403	–	–	0.00579	< 0.0001	< 0.0001	0.000754	< 0.0001	< 0.0001	0.000324	< 0.0001
CCN1CCC(O)(c2ccc(O)cc2)C(C(=O)c2ccc(O)cc2)C1 (centres undefined)	37.9	60.1 µM	42	54.9	44	32.1	> 100	–	33.4	44.4	32.8	61.9	–	–	–	–	–	–	–
CN(C(=O)c1ccc(OCCCC(=O)O)c(Cl)c1Cl)C1CCCC1	> 100	> 100 µM	> 100	> 100	> 100	> 100	> 100	> 100 µM	> 100	> 100	> 100	> 100	–	–	–	–	–	–	–
COC1C(O)C(C)OC(OC2CCC3(C)C(CCC4C3C(O)CC3(C)C(C5=CC(=O)OC5)CCC43O)C2)C1O (centres undefined)	1.57	2.78 µM	0.426	0.533	10.7	1.03	1.23	4.91 µM	0.793	0.308	0.553	2.39	–	–	–	–	–	–	–
CNC(=O)NS(=O)(=O)c1ccc(C)cc1	> 100	> 100 µM	> 100	> 100	> 100	> 100	> 100	–	> 100	> 100	–	–	–	–	–	–	–	–	–
CC1=C2C3OC(=O)C(C)C3CCC2(C)C=CC1=Nc1ccccc1 (centres undefined)	> 100	> 100 µM	> 100	> 100	> 100	> 100	> 100	> 100 µM	–	> 100	> 100	> 100	–	–	–	–	–	–	–
Cc1ccc(-c2cc(-c3ccco3)c(C#N)c(=O)n2C2OC(CO)C(O)C(O)C2O)cc1 (centres undefined)	> 100	–	> 100	> 100	> 100	> 100	> 100	> 100 µM	> 100	> 100	> 100	> 100	–	–	–	–	–	–	–

Source: PubChem BioAssay (NCI)
